Source: patent EP4603105A1, “PHARMACEUTICAL COMPOSITION CONTAINING CYCLIC COMPOUND HAVING SELECTIVE KRAS INHIBITORY EFFECT AGAINST HRAS AND NRAS” (CHUGAI SEIYAKU KABUSHIKI KAISHA, priority 2022, dated 2024)
*1 amine or outer side, *2 acyl side, *3 side chain or, on linkers, in order; H or OH if unused. Where a SMILES comes first, the peptide text is derived from it. Bridges are numbered along the chain shown (N, C = ends). [ ]: non-standard residue; d: D form. The star is where a group is joined. hPhe(3,5-F2-4-CF3) = N[C@@H](CCc1cc(F)c(C(F)(F)F)c(F)c1)C(=O)O; hPhe(3-Cl-4-CF3) = N[C@@H](CCc1ccc(C(F)(F)F)c(Cl)c1)C(=O)O; NPrPhe(4-CF3) = CCCN[C@@H](Cc1ccc(C(F)(F)F)cc1)C(=O)O; NEtPhe(4-CF3) = CCN[C@@H](Cc1ccc(C(F)(F)F)cc1)C(=O)O; X27 = COCCCN([C@@H](Cc1ccc(C)cc1)C(=O)[*:2])[*:1]; hPhe(3,4-Cl2) = N[C@@H](CCc1ccc(Cl)c(Cl)c1)C(=O)O; NMeGly(cPent) = CN[C@H](C(=O)O)C1CCCC1; NMeI = CC[C@H](C)[C@H](NC)C(=O)O; NMeD = CN[C@@H](CC(=O)O)C(=O)O; NMeL = CN[C@@H](CC(C)C)C(=O)O; Pip = O=C(O)[C@@H]1CCCCN1; Morpholide = C1CN(*)CCO1; Ac5c = NC1(C(=O)O)CCCC1; Aze = O=C(O)[C@@H]1CCN1; Sar = CNCC(=O)O

What was measured:
[1] = biological target: GDP-bound NRAS wild-type protein (Homo sapiens, UniProt P01111); experiment: Binding to NRAS by surface plasmon resonance (SPR), KD and KD ratio to KRAS
Method in brief: (§1)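 Affinity is measured by surface plasmon resonance at 30°C against captured, GDP-loaded RAS carrying a biotinylated Avi tag. Compounds are titrated by single-cycle kinetics, and KD comes from a 1:1 fit.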

HRAS wild-type protein = HRAS wild-type protein (Homo sapiens, UniProt P01112); experiment: Binding to HRAS by surface plasmon resonance (SPR), KD and KD ratio to KRAS
Method in brief: as §1

[2] = tested on: human lung cancer strain NCI-H441; assay type: cell-based
Method in brief: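 Readout: […] after the ATP-based reagent. Compound: serial dilutions in dimethyl sulfoxide.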

[3] = ratio of KD for GDP-bound NRAS wild-type protein to KD for KRAS
[4] = ratio of KD for HRAS wild-type protein to KD for KRAS
[5] = ratio of the KD value with respect to GDP-bound NRAS wild-type protein to the KD value with respect to KRAS
[6] = ratio of the KD value with respect to HRAS wild-type protein to the KD value with respect to KRAS
[7] = ratio of KD value for GDP-bound NRAS wild-type protein to KD value for KRAS (SPR)
[8] = ratio of KD value for HRAS wild-type protein to KD value for KRAS (SPR)

Sequence of GDP-bound NRAS wild-type protein (P01111 whole entry): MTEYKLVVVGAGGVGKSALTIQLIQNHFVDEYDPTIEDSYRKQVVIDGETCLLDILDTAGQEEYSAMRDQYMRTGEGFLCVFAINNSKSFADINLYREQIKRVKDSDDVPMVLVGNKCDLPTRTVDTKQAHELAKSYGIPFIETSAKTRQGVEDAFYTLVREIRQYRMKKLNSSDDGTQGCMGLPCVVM
Sequence of HRAS wild-type protein (P01112 whole entry): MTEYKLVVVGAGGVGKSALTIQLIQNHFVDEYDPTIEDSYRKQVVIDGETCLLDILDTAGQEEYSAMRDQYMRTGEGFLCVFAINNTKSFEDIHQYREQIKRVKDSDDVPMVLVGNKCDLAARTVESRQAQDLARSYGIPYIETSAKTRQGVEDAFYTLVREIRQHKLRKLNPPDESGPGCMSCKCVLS

| IC50 [2] | SMILES | NRAS /KRAS [1, 3] | HRAS /KRAS (HRAS wild-type protein; [4]) | other results |
| --- | --- | --- | --- | --- |
| 4 nM | CC[C@H](C)[C@@H]1NC(=O)[C@H](CC(C)C)N(C)C(=O)C[C@@H](C(=O)N2CCOCC2)N(C)C(=O)[C@H](C2CCCC2)N(C)C(=O)C2(CCCC2)NC(=O)[C@@H]2CCCN2C(=O)[C@H](CCc2ccc(Cl)c(Cl)c2)NC(=O)CN(C)C(=O)[C@H](Cc2ccc(C(F)(F)F)cc2)N(CC)C(=O)CN(C)C(=O)CN(C)C1=O [PP0237] ([NMeL]I[Sar][Sar][NEtPhe(4-CF3)][Sar][hPhe(3,4-Cl2)]P[Ac5c][NMeGly(cPent)][NMeD]-Morpholide; lactam N-11) | B (a compound having 3 or more and less than 10 is denoted as B) | C (A compound having a KD ratio of 0.1 or more and less than 3 is denoted as C) | – |
| 147 nM | CCCN1C(=O)CN(C)C(=O)[C@@H]2CCN2C(=O)[C@H]([C@@H](C)CC)NC(=O)[C@H](CC(C)C)N(C)C(=O)C[C@@H](C(=O)N2CCOCC2)N(C)C(=O)[C@H](C2CCCC2)N(C)C(=O)C2(CCCC2)NC(=O)[C@@H]2CCCCN2C(=O)[C@H](CCc2ccc(C(F)(F)F)c(Cl)c2)NC(=O)CN(C)C(=O)[C@@H]1Cc1ccc(C(F)(F)F)cc1 [PP0311] ([NMeL]I[Aze][Sar][NPrPhe(4-CF3)][Sar][hPhe(3-Cl-4-CF3)][Pip][Ac5c][NMeGly(cPent)][NMeD]-Morpholide; lactam N-11) | B (a compound having 3 or more and less than 10 is denoted as B) | B (a compound having 3 or more and less than 10 is denoted as B) | – |
| 17.4 nM | CCCN1C(=O)CN(C)C(=O)CN(C)C(=O)[C@H]([C@@H](C)CC)NC(=O)[C@H](CC(C)C)N(C)C(=O)C[C@@H](C(=O)N2CCOCC2)N(C)C(=O)[C@H]([C@@H](C)CC)N(C)C(=O)C2(CCCC2)NC(=O)[C@@H]2CCCN2C(=O)[C@H](CCc2ccc(C(F)(F)F)c(Cl)c2)NC(=O)CN(C)C(=O)[C@@H]1Cc1ccc(C(F)(F)F)cc1 [PP1926] ([NMeL]I[Sar][Sar][NPrPhe(4-CF3)][Sar][hPhe(3-Cl-4-CF3)]P[Ac5c][NMeI][NMeD]-Morpholide; lactam N-11) | – | – | NRAS /KRAS [1, 5]: B (a compound having 3 or more and less than 10 is denoted as B); HRAS /KRAS (HRAS wild-type protein; [6]): B (a compound having 3 or more and less than 10 is denoted as B) |
| 10.9 nM | CCO[C@@H]1C[C@H]2C(=O)NC3(CCC3)C(=O)N(C)[C@@H](C3CCCC3)C(=O)N(C)[C@H](C(=O)N(CC)CC)CC(=O)N(C)[C@@H](C)C(=O)N[C@@H]([C@@H](C)CC)C(=O)N(C)CC(=O)N(C)[C@H]3C/C=C\CCN(C3=O)[C@@H](Cc3ccc(C(F)(F)F)cc3)C(=O)N(C)CC(=O)N[C@@H](CCc3cc(F)c(C(F)(F)F)c(F)c3)C(=O)N2C1 [PP1308] | – | – | NRAS /KRAS ([1]; ratio of KD with respect to GDP-bound NRAS wild-type protein to KD with respect to KRAS): A (a compound having 10 or more and less than 20 is denoted as A); HRAS /KRAS (HRAS wild-type protein; ratio of KD with respect to HRAS wild-type protein to KD with respect to KRAS): A (a compound having 10 or more and less than 20 is denoted as A) |
| 9.5 nM | CCO[C@@H]1C[C@H]2C(=O)NC3(CC(C)(C)C3)C(=O)N(C)[C@@H](C3CCCC3)C(=O)N(C)[C@H](C(=O)N(C)C)CC(=O)N(C)[C@@H](CC(C)C)C(=O)N[C@@H]([C@@H](C)CC)C(=O)N(C)CC(=O)N(C)[C@H]3C/C=C\CCN(C3=O)[C@@H](Cc3ccc(C(F)(F)F)cc3)C(=O)N(C)CC(=O)N[C@@H](CCc3ccc(C(F)(F)F)c(F)c3)C(=O)N2C1 [PP1931] | – | – | NRAS /KRAS [1, 5]: A (a compound having 10 or more and less than 20 is denoted as A); HRAS /KRAS (HRAS wild-type protein; [6]): B (a compound having 3 or more and less than 10 is denoted as B) |
| 110 nM | CCO[C@@H]1C[C@H]2C(=O)NC3(CCC3)C(=O)N(C)[C@@H](C3CCCC3)C(=O)N(C)[C@H](C(=O)N(C)C)CC(=O)N(C)[C@@H](Cc3ccc(Cl)cc3)C(=O)N[C@@H]([C@@H](C)CC)C(=O)N(C)CC(=O)N(C)[C@H]3CCCCCN(C3=O)[C@@H](Cc3ccc(C(F)(F)F)cc3)C(=O)N(C)CC(=O)N[C@@H](CCc3cc(F)c(C(F)(F)F)c(F)c3)C(=O)N2C1 [PP0940] | B (a compound having 3 or more and less than 10 is denoted as B) | C (A compound having a KD ratio of 0.1 or more and less than 3 is denoted as C) | – |
| 6.4 nM | CCCN(C)C(=O)[C@@H]1CC(=O)N(C)[C@@H](CC)C(=O)N[C@@H]([C@@H](C)CC)C(=O)N(C)CC(=O)N(C)[C@H]2C/C=C\CCN(C2=O)[C@@H](Cc2ccc(C(F)(F)F)cc2)C(=O)N(C)CC(=O)N[C@@H](CCc2cc(F)c(C(F)(F)F)c(F)c2)C(=O)N2C[C@H](OCC)C[C@H]2C(=O)NC2(CC(F)(F)C2)C(=O)N(C)[C@@H](C2CCCC2)C(=O)N1C [PP1732] | – | – | NRAS /KRAS [1, 7]: AA (a compound having 20 or more is denoted as AA); HRAS /KRAS (HRAS wild-type protein; [8]): A (a compound having 10 or more and less than 20 is denoted as A) |
| 148 nM | CCO[C@@H]1C[C@H]2C(=O)NC3(CC(C)(C)C3)C(=O)N(C)[C@@H](CC3CCC3)C(=O)N(C)[C@H](C(=O)N(C)C)CC(=O)N(C)[C@@H](COC)C(=O)N[C@@H]([C@@H](C)CC)C(=O)N(C3CC3)CC(=O)N(C)[C@H]3C/C=C\CCN(C3=O)[C@@H](Cc3ccc(C(F)(F)F)cc3)C(=O)N(C)CC(=O)N[C@@H](CCc3ccc(C(F)(F)F)c(OC)c3)C(=O)N2C1 [PP2771] | AA (a compound having 20 or more is denoted as AA) | A (a compound having 10 or more and less than 20 is denoted as A) | – |
| 8.3 nM | CC[C@H](C)[C@@H]1NC(=O)[C@H](CC(C)C)N(C)C(=O)C[C@@H](C(=O)N2CCOCC2)N(C)C(=O)[C@H](C2CCCC2)N(C)C(=O)C2(CCCC2)NC(=O)[C@@H]2CCCN2C(=O)[C@H](CCc2ccc(C(F)(F)F)c(Cl)c2)NC(=O)CN(C)C(=O)[C@H](Cc2ccc(C)cc2)N(CCCOC)C(=O)CN(C)C(=O)CN(C)C1=O [PP0105] ([NMeL]I[Sar][Sar][X27][Sar][hPhe(3-Cl-4-CF3)]P[Ac5c][NMeGly(cPent)][NMeD]-Morpholide; lactam N-11) | B (a compound having 3 or more and less than 10 is denoted as B) | C (A compound having a KD ratio of 0.1 or more and less than 3 is denoted as C) | – |
| 2.1 nM | CC[C@H](C)[C@@H]1NC(=O)[C@@H]2CCCCCCc3ccc(cc3)C[C@@H](C(=O)N(C)CC(=O)N[C@@H](CCc3ccc(C(F)(F)F)c(OC)c3)C(=O)N3CC4(CC4)C[C@H]3C(=O)NC3(CC(C)(C)C3)C(=O)N(C)[C@@H](C3CCCC3)C(=O)N(C)[C@H](C(=O)N(C)C)CC(=O)N2C)N2CC/C=C\C[C@@H](C2=O)N(C)C(=O)CN(C)C1=O [PP3069] | A (a compound having 10 or more and less than 20 is denoted as A) | B (a compound having 3 or more and less than 10 is denoted as B) | – |
| 7.1 nM | CCCN1C(=O)CN(C)C(=O)CN(C)C(=O)[C@H]([C@@H](C)CC)NC(=O)[C@H](CC(C)C)N(C)C(=O)C[C@@H](C(=O)N(C)C)N(C)C(=O)[C@H](C2CCCC2)N(C)C(=O)C2(CCCC2)NC(=O)[C@@H]2CCCN2C(=O)[C@H](CCc2cc(F)c(C(F)(F)F)c(F)c2)NC(=O)CN(C)C(=O)[C@@H]1Cc1ccc(C(F)(F)F)cc1 [PP0788] ([NMeL]I[Sar][Sar][NPrPhe(4-CF3)][Sar][hPhe(3,5-F2-4-CF3)]P[Ac5c][NMeGly(cPent)][NMeD]-NMe2; lactam N-11) | B (a compound having 3 or more and less than 10 is denoted as B) | C (A compound having a KD ratio of 0.1 or more and less than 3 is denoted as C) | – |
| 5.9 nM | CCO[C@@H]1C[C@H]2C(=O)NC3(CC(C)(C)C3)C(=O)N(C)[C@@H](C3CCCC3)C(=O)N(C)[C@H](C(=O)N(C)C)CC(=O)N(C)[C@@H](COC)C(=O)N[C@@H]([C@@H](C)CC)C(=O)N(C)CC(=O)N(C)[C@H]3C/C=C\CCN(C3=O)[C@@H](Cc3ccc(C(F)(F)F)cc3)C(=O)N(C)CC(=O)N[C@@H](CCc3ccc(C(F)(F)F)c(Cl)c3)C(=O)N2C1 [PP1753] | – | – | NRAS /KRAS [1, 7]: A (a compound having 10 or more and less than 20 is denoted as A); HRAS /KRAS (HRAS wild-type protein; [8]): A (a compound having 10 or more and less than 20 is denoted as A) |
| 5.4 nM | CC[C@H](C)[C@@H]1NC(=O)[C@H](CC(C)C)N(C)C(=O)C[C@@H](C(=O)N2CCCC2)N(C)C(=O)[C@H](C2CCCC2)N(C)C(=O)C2(CCCC2)NC(=O)[C@@H]2CCCN2C(=O)[C@H](CCc2cc(F)c(C(F)(F)F)c(F)c2)NC(=O)CN(C)C(=O)[C@H](Cc2ccc(C(F)(F)F)cc2)N2CCCC[C@@H](C2=O)N(C)C(=O)CN(C)C1=O [PP0571] | – | – | NRAS /KRAS [1, 5]: B (a compound having 3 or more and less than 10 is denoted as B); HRAS /KRAS (HRAS wild-type protein; [6]): B (a compound having 3 or more and less than 10 is denoted as B) |

| SMILES | IC50 [2] | NRAS /KRAS [1, 3] | HRAS /KRAS (HRAS wild-type protein; [4]) | other results |
| --- | --- | --- | --- | --- |
| CC[C@H](C)[C@@H]1NC(=O)[C@H](CC(C)C)N(C)C(=O)C[C@@H](C(=O)N2CCCCC2)N(C)C(=O)[C@H](C2CCCC2)N(C)C(=O)C2(CCCC2)NC(=O)[C@@H]2CCCN2C(=O)[C@H](CCc2cc(F)c(C(F)(F)F)c(F)c2)NC(=O)CN(C)C(=O)[C@H](Cc2ccc(C(F)(F)F)cc2)N2CCCCC[C@@H](C2=O)N(C)C(=O)CN(C)C1=O [PP0510] | 391 nM | – | – | NRAS /KRAS [1, 5]: B (a compound having 3 or more and less than 10 is denoted as B); HRAS /KRAS (HRAS wild-type protein; [6]): B (a compound having 3 or more and less than 10 is denoted as B) |
